{"source": "patent US20060234919A1", "about": "“Use” (priority 2001, published 2006)", "key": {"[1]": {"tested_on": "collagenase-induced cutaneous inflammation", "assay": "collagenase-induced cutaneous plasma protein extravasation", "format": "in vivo, guinea-pig", "procedure": "One hour after anaesthesia of guinea-pigs with urethane (1.6 g/kg, i.p.), Evans blue (20 mg/kg) was injected into a jugular vein. Collagenase ([…]) or its solvent ([…] 154 mmol/l NaCl solution) was injected s. c. into the dorsal skin. All doses of collagenase as well as the solvent were injected on both sides of the spine in randomised order. The ensuing plasma protein extravasation was determined at 60 min by extraction of Evans blue (see above) from the dorsal skin.\nOxytocin was dissolved and diluted in DMSO for all experiments involving s. c. injection in volumes of 1.0 ml/kg. All pretreatments were given 1 h prior to the induction of the respective model of inflammation. All animal experiments approved of by Karolinska institutets animal committe.\nOxytocin was a gift from Poly Peptides Copenhagen, Denmark and was dissolved in phosphate-buffered saline (composition in mmol/l: NaCl 136.9, KCl 2.7, KH2PO4 1.5, Na2HPO4 7.7). Cyclophosphamide monohydrate and collagenase from Clostridium histolyticum (type II, clostridiopeptidase A, EC 3.4.24.3) were obtained from Sigma and were dissolved in 154 mmol/l NaCl."}, "xylene-induced cystitis": {"tested_on": "xylene-induced cystitis", "assay": "xylene-induced cystitis, plasma protein extravasation (Evans blue)", "format": "in vivo, rat", "settings": "1 mg/ml s.c. 1 h before xylene; 2 h after instillation; xylene alone 13.21±3.68; p<0.01", "procedure": "Rats were anaesthetised with pentobarbital sodium and phenobarbitone sodium as above. Following i. v. injection of Evans blue (20 mg/kg, i. v.), the urinary bladder was cannulated via the urethra using a polyethylene tubing and […] xylene (30% v/v in silicone oil) were instilled within 10 s. The cannula was then left in place for a further period of 10 s. Two hours later, the animals were injected with an overdose of pentobarbitone sodium and the bladder was removed. Evans blue was extracted by incubation of the tissue in 4 ml formamide for 24 h at 55° C. for subsequent photometric measurements at 620 nm.\nPlasma protein extravasation in the urinary bladder of anaesthetised rats was made 2 h after intravesical instillation of 30% (v/v) xylene […]. Control animals were treated with appropriate volumes of the vehicles ([…] silicone oil or 4 ml/kg 154 mmol/l NaCl solution, respectively). Oxytocin (1 mg/ml) was injected s. c. 1 h before administration of xylene or cyclophosphamide while control rats received DMSO (0.5 ml/kg, s. c.). Plasma protein extravasation is given as total tissue content of the protein marker, Evans blue, given i. v. (20 mg/kg) 5 min prior to the induction of cystitis.\nOxytocin was dissolved and diluted in DMSO for all experiments involving s. c. injection in volumes of 1.0 ml/kg. […]"}, "[2]": {"tested_on": "magnesium deficiency-induced dermatosis", "assay": "atopic dermatitis-like symptoms in hypomagnesaemic hairless rats", "format": "in vivo, rat", "procedure": "Male hairless rats (Ico:OFA hr/hr) were obtained from Iffa Credo (Lyon, France) immediately after weaning and housed under conventional standardised conditions in polycarbonate cages with wood chip bedding in a room with 12:12 h light/dark cycle, 24±1° C. The rats were fed with a standard maintenance diet low in magnesium (Altromin, Lage, Germany, C10350; 0.012% Mg^2+/kg dry matter) and demonised water was supplied ad libitum. This diet rendered the animals hypomagnesaemic. Magnesium (mean±SD, mmol/l) in serum fell to 0.58±0.23 on day 4, 0.36±0.18 on day 10, and to the lowest value (0.24±0.11) on day 15 on the diet. The lowest concentration was maintained up to the termination of the experiments. Under these conditions, the onset of clinical signs was after 6-8 days on the diet. The first signs were pronounced reddening and swelling of both ear lobes in all animals. […] Simultaneously with the onset of erythema, the rats began to scratch intensively and bite themselves, causing erosions and excoriations. Head, trunk, paws and tail were uniformly and intensely reddened within 2 days after the onset of signs. This stage was followed by the development of small papules and irregularly shaped plaques 1-2 cm in diameter on the trunk. The skin lesions and the signs of pruritus were most pronounced after 10-11 days on the diet, and were then constant for approximately 4 days. This acute stage was then followed by a decrease in general erythema and, subsequently, by the remission of papules and plaques within approximately 5 days. However, complete clearance was not observed.\nDrug, formulations and treatment regimens: For topical administration, the oxytocin was dissolved in ethanol/propylene glycol (1 mg/ml).\nThe treatment was performed either unilaterally with the active drug on the right ear and with the vehicle contralaterally or bilaterally on both ears with oxytocin and vehicle, respectively. Therapeutic treatment was started immediately after clinical signs had fully developed and was given twice daily for 3 consecutive days. Prophylactic application was started on day 3 on the diet (i.e. 3-5 days before the expected onset of signs) and was given once daily for 7 days until day 9. Active drug or vehicle was applied in volumes of 20 μl to both sides of the ears.\nFor assessment of the therapeutic efficacy of oxytocin the animals were examined clinically once daily during the treatment period and for a further 7 days (topical treatment). Prophylactic activity was determined by daily examinations performed during the treatment period and a further 9 days. A score index (scale 0-3) for ear lesions was applied: 0, no change; 1, slight edematous, erythematous swelling; 2, moderate edematous, erythematous swelling; 3, pronounced edematous, erythematous swelling. In all experiments, the skin lesions were evaluated clinically by a single investigator unaware of the treatment allocation."}, "[3]": {"tested_on": "carrageenan induced hyperalgesia", "assay": "carrageenan induced hyperalgesia, Randall Selitto Test", "format": "in vivo, rat", "settings": "1000 μg/kg s.c.; 1 hour and 6 hours after the injection, compared to controls; p<0.05", "procedure": "Nociceptive thresholds were measured in the rats given oxytocin 1000 μg/kg s.c. and their controls. This was done by determining the response to mechanical stimulation using the Randall Selitto Test (Ugo Basile, type 7200, Italy). The mechanical stimulus was applied to the dorsal surface of the hindpaw by a wedged-shape pusher at a loading rate of 48 g/s and the pressure required to initiate the struggle response was measured. All rats were trained on three consecutive days before testing."}}}
{"substance": "Oxytocin", "values": [{"measurement": "effect on collagenase-induced plasma protein extravasation", "setting": "[1]; 1 ug/ml oxytocin, 10 and 30 mg collagenase", "value": "no effect"}, {"measurement": "cutaneous plasma protein extravasation, Evans blue accumulation", "setting": "[1]; s.c. pre-treatment 1 mg/ml, 10 mg collagenase, without oxytocin 3.5±1.0", "value": "2.2 ± 0.9", "unit": "mg"}, {"measurement": "effect on collagenase-induced plasma protein extravasation", "setting": "[1]; s.c. pre-treatment 1 mg/ml, higher doses of the enzyme", "value": "attenuated the effect"}, {"measurement": "plasma protein extravasation, total Evans blue content of the urinary bladder", "setting": "xylene-induced cystitis", "value": "5.14 ± 2.58", "unit": "mg"}, {"measurement": "sum of daily scores (ear lesions, scale 0-3) from day 3 to 10", "setting": "[2]; prophylactic topical, once daily day 3 to 9, vehicle-treated ears 9.2±0.7", "value": "2.4±1.1"}, {"measurement": "time after the last dose until which signs remained suppressed", "setting": "[2]; therapeutic, bilateral application, signs reappeared 4 or 5 days after the last dose", "value": 3, "unit": "days"}, {"measurement": "local erythematous swelling of the ears", "setting": "[2]; therapeutic, bilateral application, within 1 day after the first dose", "value": "significantly inhibited"}, {"measurement": "local erythematous swelling of the ear", "setting": "[2]; therapeutic, epicutaneously on one ear, 1 mg/ml, within 1 day after the start of treatment", "value": "significantly reduced local erythematous swelling"}, {"measurement": "systemic effect (distant erythematous lesions on the trunk and pruritus)", "setting": "[2]; topical dose applied on the ears", "value": "no systemic effect"}, {"measurement": "nociceptive threshold, response to mechanical stimulation", "setting": "[3]", "value": "increase in withdrawal latency"}]}
